Literature values as cited in patent US9272049B2, “Methods of stimulating fat mobilization using a polymer conjugated polyphenol” (NANOPHARMACEUTICALS LLC, priority 2005, dated 2016).

Tests used:
[1] = test system: insulin-sensitive mammalian cell lines; conditions: several insulin-sensitive mammalian cell lines

Oc1ccc(C=Cc2cc(O)cc(O)c2)cc1 [Resveratrol]
fat accumulation (C. elegans): reduce fat accumulation | fat accumulation [1]: reduce fat accumulation
